# ChEMBL document CHEMBL4428048, “Discovery of Novel Polo-Like Kinase 1 Polo-Box Domain Inhibitors to Induce Mitotic Arrest in Tumor Cells” (J Med Chem, 2016)
# pEC50, pKd: −log10 of the molar value. Active and inactive are the calls of the source. The calls are words filed in the database; no cut-off is given here.
# How the values were obtained:
# [1] = system: HeLa; experiment: Growth inhibition of human HeLa cells at 50 uM after 72 hrs by MTT assay relative to control; type: functional; settings: read-out: GI
# [2] = system: HeLa; experiment: Induction of mitotic arrest in human HeLa cells assessed as increase in level of 4N DNA cells after 24 hrs by propidium iodide staining-based FACS analysis; type: functional, cell-based
# [3] = system: HeLa; experiment: Induction of mitotic arrest in human HeLa cells assessed as increase in level of 4N DNA cells at 40 uM after 24 hrs by propidium iodide staining-based FACS analysis; type: functional, cell-based
# [4] = system: RKO; experiment: Growth inhibition of human RKO cells at 50 uM after 72 hrs by MTT assay relative to control; type: functional; settings: read-out: GI
# [5] = system: HeLa; experiment: Induction of mitotic arrest in human HeLa cells assessed as increase in level of 4N DNA cells at 30 uM after 24 hrs by propidium iodide staining-based FACS analysis; type: functional, cell-based
# [6] = target: Serine/threonine-protein kinase PLK2 (Homo sapiens, UniProt Q9NYY3); experiment: Binding affinity to GST-tagged PLK2 PBD (355 to 685 residues) (unknown origin) by NT-647 dye-based microscale thermophoresis analysis
# Sequence of Serine/threonine-protein kinase PLK2 (Q9NYY3 whole entry, the tested form may be a part): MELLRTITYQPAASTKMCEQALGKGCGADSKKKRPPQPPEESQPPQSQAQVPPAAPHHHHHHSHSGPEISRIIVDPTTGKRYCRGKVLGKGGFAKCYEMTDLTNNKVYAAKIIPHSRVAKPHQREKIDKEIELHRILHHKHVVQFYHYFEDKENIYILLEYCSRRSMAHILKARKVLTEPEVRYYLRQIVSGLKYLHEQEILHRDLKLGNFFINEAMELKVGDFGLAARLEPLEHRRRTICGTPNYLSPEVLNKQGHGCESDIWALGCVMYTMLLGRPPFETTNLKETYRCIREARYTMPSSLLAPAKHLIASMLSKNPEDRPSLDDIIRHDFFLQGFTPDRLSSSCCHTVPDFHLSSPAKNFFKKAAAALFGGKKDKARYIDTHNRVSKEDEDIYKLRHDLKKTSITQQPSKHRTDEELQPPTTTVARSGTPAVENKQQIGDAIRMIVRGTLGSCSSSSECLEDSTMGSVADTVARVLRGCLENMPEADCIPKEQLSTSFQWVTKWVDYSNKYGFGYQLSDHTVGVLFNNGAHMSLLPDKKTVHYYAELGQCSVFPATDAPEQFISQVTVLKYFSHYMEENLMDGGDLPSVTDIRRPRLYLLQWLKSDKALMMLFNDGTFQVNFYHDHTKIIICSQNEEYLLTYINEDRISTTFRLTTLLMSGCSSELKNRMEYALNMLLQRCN
# [7] = system: HeLa; experiment: Growth inhibition of human HeLa cells at 100 uM after 72 hrs by MTT assay relative to control; type: functional; settings: read-out: GI
# [8] = system: RKO; experiment: Growth inhibition of human RKO cells at 100 uM after 72 hrs by MTT assay relative to control; type: functional; settings: read-out: GI
# [9] = system: U2OS; experiment: Growth inhibition of human U2OS cells at 100 uM after 72 hrs by MTT assay relative to control; type: functional; settings: read-out: GI
# [10] = system: HeLa; experiment: Induction of mitotic arrest in human HeLa cells assessed as 4N DNA cells at 100 uM after 24 hrs by propidium iodide staining-based FACS analysis relative to control; type: functional
# [11] = system: U2OS; experiment: Growth inhibition of human U2OS cells at 50 uM after 72 hrs by MTT assay relative to control; type: functional; settings: read-out: GI
# [12] = system: HeLa; experiment: cells; settings: Homo sapiens, 72 h
# Description: Growth inhibition of human HeLa cells after 72 hrs by MTT assay
# [13] = system: RKO; experiment: cells; settings: Homo sapiens, 72 h
# Description: Growth inhibition of human RKO cells after 72 hrs by MTT assay
# [14] = system: HeLa; experiment: Induction of mitotic arrest in human HeLa cells assessed as increase in level of 4N DNA cells at 10 uM after 24 hrs by propidium iodide staining-based FACS analysis; type: functional, cell-based
# [15] = system: HeLa; experiment: Induction of mitotic arrest in human HeLa cells by propidium iodide staining-based FACS analysis; type: functional, cell-based
# [16] = system: RKO; experiment: Growth inhibition of human RKO cells at 20 uM after 72 hrs by MTT assay relative to control; type: functional; settings: read-out: GI
# [17] = system: U2OS; experiment: Growth inhibition of human U2OS cells at 20 uM after 72 hrs by MTT assay relative to control; type: functional; settings: read-out: GI
# [18] = system: HeLa; experiment: Induction of mitotic arrest in human HeLa cells assessed as increase in level of 4N DNA cells at 5 uM after 24 hrs by propidium iodide staining-based FACS analysis; type: functional, cell-based
# [19] = system: U2OS; experiment: cells; settings: Homo sapiens, 72 h
# Description: Growth inhibition of human U2OS cells after 72 hrs by MTT assay
# [20] = target: Serine/threonine-protein kinase PLK1 (Homo sapiens, UniProt P53350, W414A); experiment: Binding affinity to GST-tagged PLK1 PBD W414A mutant (unknown origin) by NT-647 dye-based microscale thermophoresis analysis
# Sequence of Serine/threonine-protein kinase PLK1 (Homo sapiens, UniProt P53350, W414A) (P53350 2-603 W414A limits assumed): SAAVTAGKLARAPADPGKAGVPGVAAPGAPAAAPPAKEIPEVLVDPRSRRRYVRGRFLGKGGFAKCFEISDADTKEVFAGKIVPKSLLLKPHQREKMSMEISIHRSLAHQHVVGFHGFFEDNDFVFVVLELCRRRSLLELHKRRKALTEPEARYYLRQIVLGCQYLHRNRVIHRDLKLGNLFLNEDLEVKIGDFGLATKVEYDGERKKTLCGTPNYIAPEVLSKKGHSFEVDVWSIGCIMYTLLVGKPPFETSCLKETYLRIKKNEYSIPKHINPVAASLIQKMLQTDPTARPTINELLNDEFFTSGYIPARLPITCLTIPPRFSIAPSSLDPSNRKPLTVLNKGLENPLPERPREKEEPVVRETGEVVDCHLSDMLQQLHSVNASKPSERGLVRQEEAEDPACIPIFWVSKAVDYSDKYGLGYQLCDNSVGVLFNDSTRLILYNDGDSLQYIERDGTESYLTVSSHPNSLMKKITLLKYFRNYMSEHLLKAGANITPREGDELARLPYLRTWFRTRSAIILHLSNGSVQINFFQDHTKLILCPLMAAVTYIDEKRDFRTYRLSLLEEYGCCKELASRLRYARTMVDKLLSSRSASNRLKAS
# [21] = target: Serine/threonine-protein kinase PLK1 (Homo sapiens, UniProt P53350); experiment: Binding affinity to GST-tagged PLK1 PBD (327 to 603 residues) (unknown origin) by NT-647 dye-based microscale thermophoresis analysis
# Sequence of Serine/threonine-protein kinase PLK1 (Homo sapiens, UniProt P53350) (P53350 whole entry, the tested form may be a part): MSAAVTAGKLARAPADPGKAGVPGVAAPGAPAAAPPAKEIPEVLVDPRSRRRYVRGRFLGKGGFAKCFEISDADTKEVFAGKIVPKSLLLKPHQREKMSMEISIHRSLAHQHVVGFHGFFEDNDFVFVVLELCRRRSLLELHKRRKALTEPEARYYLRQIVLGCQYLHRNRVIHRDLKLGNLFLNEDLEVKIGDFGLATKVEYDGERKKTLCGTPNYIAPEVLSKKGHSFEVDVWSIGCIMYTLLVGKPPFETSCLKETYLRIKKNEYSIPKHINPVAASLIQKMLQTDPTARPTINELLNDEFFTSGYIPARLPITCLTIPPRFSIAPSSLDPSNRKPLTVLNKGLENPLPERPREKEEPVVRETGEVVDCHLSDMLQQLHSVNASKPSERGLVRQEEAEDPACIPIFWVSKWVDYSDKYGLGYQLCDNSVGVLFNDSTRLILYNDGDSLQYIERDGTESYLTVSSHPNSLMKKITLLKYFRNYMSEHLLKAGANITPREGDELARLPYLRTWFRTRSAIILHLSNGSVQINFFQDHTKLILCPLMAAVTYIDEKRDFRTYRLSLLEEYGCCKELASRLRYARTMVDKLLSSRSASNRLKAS
smiles,measurement,setting,value
CCCc1oc2ccc(NS(=O)(=O)c3cccs3)cc2c1C(=O)OCC,inhibition of growth at 50 µM,[1],31.8%
same,pEC50,[2],4.35
same,Activity,[3],Active
same,inhibition of growth at 50 µM,[4],39.4%
Cc1ccc(/C(=N/S(=O)(=O)c2ccccc2)NC(=S)Nc2ccc([N+](=O)[O-])cc2)cc1,Activity,[2],Dose-dependent effect
same,pEC50,[2],4.68
same,Activity,[5],Active
same,pKd,[6],3.80
Cc1ccc2nc(C)cc(SCC(=O)N/N=C/c3ccc(Cl)cc3)c2c1,inhibition of growth at 100 µM,[7],36.7%
same,pEC50,[2],4.73
same,inhibition of growth at 100 µM,[8],34%
same,Activity,[5],Active
same,inhibition of growth at 100 µM,[9],25.5%
CC1=CC(=O)C(C(C)C)=C/C1=N/OC(=O)c1ccccc1C,Activity,[10],36%
same,pKd,[6],4.06
CCc1ccc(/C=N/NC(=O)c2sc3cc(Cl)ccc3c2Cl)s1,pEC50,[2],5.07
same,Activity,[5],Active
CCn1c2ccccc2c2cc(/C=N/NC(=O)c3cccc(Cl)c3)ccc21,inhibition of growth at 50 µM,[11],42.2%
same,pEC50,[12],4.81
same,pEC50,[13],5.00
same,pEC50,[2],5.36
same,Activity,[14],Active
CC1=C/C(=N/OC(=O)c2ccccc2C)C(C)=CC1=O,pEC50,[15],4.82
O=C(N/N=C/c1ccc(Br)cc1)c1n[nH]c2c1CCCC2,inhibition of growth at 20 µM,[16],37%
same,pEC50,[12],5.59
same,inhibition of growth at 20 µM,[17],59.8%
same,Activity,[18],Active
CCn1c2ccccc2c2cc(/C=N/NC(=O)c3ccccc3[N+](=O)[O-])ccc21,inhibition of growth at 50 µM,[11],41.7%
same,pEC50,[12],4.82
same,pEC50,[2],5.28
same,Activity,[14],Active
same,inhibition of growth at 50 µM,[4],43%
CCN(CC)c1ccc(NC(=O)/C=C/c2cccc3ccccc23)cc1,inhibition of growth at 50 µM,[1],31.2%
same,pEC50,[19],4.74
same,Activity,[5],Active
same,inhibition of growth at 50 µM,[4],34%
O=C(CCn1c2ccccc2c2ccccc21)N/N=C/c1cc(Cl)cc(Cl)c1,inhibition of growth at 50 µM,[11],48.8%
same,inhibition of growth at 50 µM,[1],45.7%
same,pEC50,[13],4.72
same,pEC50,[2],4.69
same,Activity,[5],Active
same,pKd,[6],3.68
Cc1ccccc1OCC(=O)N/N=C/c1ccc2c(c1)OCCO2,pKd,[20],3.39
same,pEC50,[19],4.42
same,inhibition of growth at 100 µM,[7],40.2%
same,pEC50,[2],4.59
same,inhibition of growth at 100 µM,[8],35.3%
same,Activity,[5],Active
same,pKd,[21],4.35
same,pKd,[6],3.71
